Reference: patent US9328090B2, “Arylethynyl derivatives” (Hoffmann-La Roche Inc., priority 2012, dated 2016)
Each block holds one compound with its values, some of them ahead of it.

Target: T1, human mGlu5a receptor (Homo sapiens, UniProt P41594)
T1 construct: expressed in transfected cells; host or cells: HEK-293 (monoclonal, stably transfected)
Assay: Intracellular Ca2+ mobilization assay (mGlu5 PAM)
Type: cell-based
Conditions: for EC50: HEK-293 cells stably transfected with human mGlu5a, L-glutamate added at EC20; for Efficacy [%]: maximal response in % of the maximal stimulatory effect obtained with saturating L-glutamate
Method: A monoclonal HEK-293 cell line stably transfected with a cDNA encoding for the human mGlu5a receptor was generated; for the work with mGlu5 Positive Allosteric Modulators (PAMs), a cell line with low receptor expression levels and low constitutive receptor activity was selected to allow the differentiation of agonistic versus PAM activity. Cells were cultured according to standard protocols (Freshney, 2000) in Dulbecco's Modified Eagle Medium with high glucose supplemented with 1 mM glutamine, 10% (vol/vol) heat-inactivated bovine calf serum, Penicillin/Streptomycin, 50 μg/ml hygromycin and 15 μg/ml blasticidin (all cell culture reagents and antibiotics from Invitrogen, Basel, Switzerland).
About 24 hrs before an experiment, 5×10^4 cells/well were seeded in poly-D-lysine coated, black/clear-bottomed 96-well plates. The cells were loaded with 2.5 μM Fluo-4AM in loading buffer (1×HBSS, 20 mM HEPES) for 1 hr at 37° C. and washed five times with loading buffer. The cells were transferred into a Functional Drug Screening System 7000 (Hamamatsu, Paris, France), and 11 half logarithmic serial dilutions of test compound at 37° C. were added and the cells were incubated for 10-30 min. with on-line recording of fluorescence. Following this pre-incubation step, the agonist L-glutamate was added to the cells at a concentration corresponding to EC20 (typically around 80 μM) with on-line recording of fluorescence; in order to account for day-to-day variations in the responsiveness of cells, the EC20 of glutamate was determined immediately ahead of each experiment by recording of a full dose-response curve of glutamate.
Responses were measured as peak increase in fluorescence minus basal (i.e. fluorescence without addition of L-glutamate), normalized to the maximal stimulatory effect obtained with saturating concentrations of L-glutamate. Graphs were plotted with the % maximal stimulatory using XLfit, a curve fitting program that iteratively plots the data using Levenburg Marquardt algorithm. The single site competition analysis equation used was y=A+((B−A)/(1+((x/C)D))), where y is the % maximal stimulatory effect, A is the minimum y, B is the maximum y, C is the EC50, x is the log 10 of the concentration of the competing compound and D is the slope of the curve (the Hill Coefficient). From these curves the EC50 (concentration at which half maximal stimulation was achieved), the Hill coefficient as well as the maximal response in % of the maximal stimulatory effect obtained with saturating concentrations of L-glutamate were calculated.
A depression of the signal observed after addition of the EC20 concentration of L-glutamate was indicative of an inhibitory activity of the test compound.

T1 sequence (P41594 21-1180 isoform P41594-2 limits assumed): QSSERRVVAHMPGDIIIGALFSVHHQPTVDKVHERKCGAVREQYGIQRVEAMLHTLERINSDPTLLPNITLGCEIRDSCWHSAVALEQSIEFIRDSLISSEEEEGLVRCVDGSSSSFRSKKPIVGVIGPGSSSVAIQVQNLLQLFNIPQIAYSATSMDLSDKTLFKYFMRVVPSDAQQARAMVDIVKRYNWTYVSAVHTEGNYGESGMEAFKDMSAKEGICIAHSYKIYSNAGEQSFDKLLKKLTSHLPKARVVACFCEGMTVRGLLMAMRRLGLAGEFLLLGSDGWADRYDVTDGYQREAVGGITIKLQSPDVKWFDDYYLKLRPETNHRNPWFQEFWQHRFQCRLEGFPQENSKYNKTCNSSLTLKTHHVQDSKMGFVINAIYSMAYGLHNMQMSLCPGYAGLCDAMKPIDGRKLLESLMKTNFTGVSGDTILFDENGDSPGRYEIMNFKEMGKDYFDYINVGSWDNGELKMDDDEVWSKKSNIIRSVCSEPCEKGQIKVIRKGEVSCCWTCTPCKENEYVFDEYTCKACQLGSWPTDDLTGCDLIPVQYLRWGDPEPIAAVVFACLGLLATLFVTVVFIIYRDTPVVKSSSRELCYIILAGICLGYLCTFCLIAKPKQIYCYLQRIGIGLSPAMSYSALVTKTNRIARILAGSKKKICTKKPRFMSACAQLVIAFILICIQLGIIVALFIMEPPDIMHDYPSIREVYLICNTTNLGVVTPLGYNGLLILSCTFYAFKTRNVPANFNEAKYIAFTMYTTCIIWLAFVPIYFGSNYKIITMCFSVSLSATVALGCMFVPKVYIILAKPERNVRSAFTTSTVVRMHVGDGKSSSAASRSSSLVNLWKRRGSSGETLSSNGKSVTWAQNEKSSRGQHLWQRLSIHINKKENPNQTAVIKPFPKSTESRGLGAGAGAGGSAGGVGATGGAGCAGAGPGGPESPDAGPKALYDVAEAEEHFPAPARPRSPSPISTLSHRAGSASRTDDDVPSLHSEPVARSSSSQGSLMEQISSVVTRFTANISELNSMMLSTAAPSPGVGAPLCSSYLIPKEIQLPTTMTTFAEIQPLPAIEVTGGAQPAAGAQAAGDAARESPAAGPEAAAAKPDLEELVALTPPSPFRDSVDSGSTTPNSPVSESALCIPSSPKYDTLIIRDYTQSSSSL

Structure (SMILES): O=C1C[C@H]2CCC[C@H]2N1c1ccc(C#Cc2cc(F)ccc2F)cn1 [Example 4, (3aR,6aR)-1-(5-((2,5-Difluorophenyl)ethynyl)pyridin-2-yl)hexahydrocyclopenta[b]pyrrol-2(1H)-one]
EC50: 8 nM
Efficacy [%]: 19%

Structure (SMILES): CC1(C)CC(=O)N(c2ccc(C#Cc3ccccc3)cn2)C1 [Ref. 1 Ex. 13, reference compound]
Efficacy [%]: 129%

Structure (SMILES): CC1(C)CC(=O)N(c2ccc(C#Cc3cccc(F)c3)cn2)C1 [Ref. 1 Ex. 40, reference compound]
Efficacy [%]: 100%

Structure (SMILES): O=C1CC2(CCCC2)CN1c1ccc(C#Cc2ccccc2)cn1 [Ref. 1 Ex. 59, reference compound]
Efficacy [%]: 81%

The remaining lines, values ahead:

EC50: 10 nM
Efficacy [%]: 44%
Structure (SMILES): O=C1C[C@H]2CCC[C@H]2N1c1ccc(C#Cc2ccc(F)cc2)cn1 [Example 3, (3aR,6aR)-1-(5-((4-Fluorophenyl)ethynyl)pyridin-2-yl)hexahydrocyclopenta[b]pyrrol-2(1H)-one]

EC50: 10 nM
Efficacy [%]: 45%
Structure (SMILES): O=C1C[C@H]2CCC[C@H]2N1c1ccc(C#Cc2ccccc2)cn1 [Example 1, (3aR,6aR)-1-(5-(phenylethynyl)pyridin-2-yl)hexahydrocyclopenta[b]pyrrol-2(1H)-one]

EC50: 10 nM
Efficacy [%]: 48%
Structure (SMILES): O=C1C[C@H]2CCC[C@H]2N1c1ccc(C#Cc2cccc(F)c2)cn1 [Example 2, (3aR,6aR)-1-(5-((3-Fluorophenyl)ethynyl)pyridin-2-yl)hexahydrocyclopenta[b]pyrrol-2(1H)-one]
